Measurements taken from patent publication US8445674B2, “Heterocyclyl compounds” (Hoffmann-La Roche Inc, priority 2009, dated 2013).

target: T1, human chemokine receptor 2 isoform B (Homo sapiens, UniProt P41597); experiment: Calcium mobilization assay (FLIPR, antagonist activity against MCP-1); type: cell-based; conditions: Ca mobilisation assay, CHOK1-CCR2B-A5 cells, inhibition of calcium increase induced by 20 nM MCP-1
T1 construct: host or cells: CHOK1-CCR2B-A5 cells (CHO-K1)
T1 sequence (P41597 1-360 isoform P41597-2): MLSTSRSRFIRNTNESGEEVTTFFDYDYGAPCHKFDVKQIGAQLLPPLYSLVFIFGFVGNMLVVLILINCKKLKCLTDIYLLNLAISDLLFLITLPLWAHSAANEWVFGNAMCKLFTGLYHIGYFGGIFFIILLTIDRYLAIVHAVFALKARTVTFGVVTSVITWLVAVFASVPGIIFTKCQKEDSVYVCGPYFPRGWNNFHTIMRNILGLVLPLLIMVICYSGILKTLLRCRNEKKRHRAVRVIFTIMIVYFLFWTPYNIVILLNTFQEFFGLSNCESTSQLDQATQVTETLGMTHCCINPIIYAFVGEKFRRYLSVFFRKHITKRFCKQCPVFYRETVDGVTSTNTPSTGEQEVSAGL
Protocol: Calcium Mobilization Assay
CHOK1-CCR2B-A5 cells (from Euroscreen) stably overexpressing the human chemokine receptor 2 isoform B were cultured in Nutrient Hams F12 medium supplemented with 5% FBS, 100 U/ml penicillin, 100 μg/ml streptomycin, 400 μg/ml G418 and 5 μg/ml puromycin.
For the assay cells were grown overnight in 384-well black clear flat bottom polystyrene plates (Costar) at 37° C. at 5% CO2. After washing with DMEM, 20 mM Hepes, 2.5 mM probenecid, 0.1% BSA (DMEM assay buffer) cells were loaded with 4 μM Fluo-4 in the same DMEM assay buffer for 2 hours at 30° C. Excess dye was removed and cells were washed with DMEM assay buffer. 384-well compound plates were prepared with DMEM assay buffer/0.5% DMSO with or without various concentrations of test compounds. Usually compounds were tested for agonist and antagonist activity.
Test compounds were added to the assay plate and agonist activity was monitored as fluorescence for 80 seconds with a FLIPR (488 nm excitation; 510-570 nm emission; Molecular Devices). After 20-30 min. of incubation at 30° C., 20 nM MCP-1 (R&D; Roche) was added and fluorescence was monitored again for 80 seconds. Increases in intracellular calcium are reported as maximum fluorescence after agonist exposure minus basal fluorescence before exposure. Antagonist activity is indicated as inhibitor concentration required for 50% inhibition of specific calcium increases.

Structure (SMILES) | IC50 [nM]
O=C1CCN(c2ccc(OC(F)(F)F)c(Cl)c2)CCN1CCCC(=O)N1CCC2(CC2)[C@H](O)C1 [Example 122, 1-(3-Chloro-4-trifluoromethoxy-phenyl)-4-[4-((S)-4-hydroxy-6-aza-spiro[2.5]oct-6-yl)-4-oxo-butyl]-[1,4]diazepan-5-one] | 167
C[C@H]1C(=O)N(CCC(=O)N2CCC(C(F)(F)F)CC2)CCN1C(=O)Nc1ccc(Cl)c(Cl)c1 [Example 24, (S)-2-Methyl-3-oxo-4-[3-oxo-3-(4-trifluoromethyl-piperidin-1-yl)-propyl]-piperazine-1-carboxylic acid (3,4-dichloro-phenyl)-amide] | 3170
O=C1NC(=O)C2(CCN(C(=O)CCN3CCN(C(=O)/C=C/c4ccc(Cl)c(Cl)c4)CCC3=O)CC2)N1 [Example 89, 8-(3-{4-[(E)-3-(3,4-Dichloro-phenyl)-acryloyl]-7-oxo-[1,4]diazepan-1-yl}-propionyl)-1,3,8-triaza-spiro[4.5]decane-2,4-dione] | 4000
C[C@H]1C(=O)N(CCCC(=O)N2CC[C@](C)(CO)[C@H](O)C2)CCN1C(=O)Nc1cccc(Cl)c1 (racemic) [Example 114, (S)-4-[4-((3SR,4RS)-3-Hydroxy-4-hydroxymethyl-4-methyl-piperidin-1-yl)-4-oxo-bulyl]-2-methyl-3-oxo-piperazine-1-carboxylic acid (3-chloro-phenyl)-amide] | 31.5
C[C@H]1C(=O)N(CCC(=O)N2CCCCC2)CCN1C(=O)Nc1ccc(Cl)c(Cl)c1 [Example 16, (S)-2-Methyl-3-oxo-4-(3-oxo-3-piperidin-1-yl-propyl)-piperazine-1-carboxylic acid (3,4-dichloro-phenyl)-amide] | 4110
O=C1CCCN(C(=O)CCN2CCN(C(=O)/C=C/c3ccc(Cl)c(Cl)c3)CCC2=O)C1 [Example 79, 1-[(E)-3-(3,4-Dichloro-phenyl)-acryloyl]-4-[3-oxo-3-(3-oxo-piperidin-1-yl)-propyl]-[1,4]diazepan-5-one] | 1820
C[C@H]1C(=O)N(CCC(=O)N2CCOCC2)CCN1C(=O)Nc1ccc(Cl)c(Cl)c1 [Example 22, (S)-2-Methyl-4-(3-morpholin-4-yl-3-oxo-propyl)-3-oxo-piperazine-1-carboxylic acid (3,4-dichloro-phenyl)-amide] | 3070
C[C@H]1C(=O)N([C@@H](CCC(=O)N2CCC3(CC3)[C@H](O)C2)C(N)=O)CCN1C(=O)Nc1ccc(C(F)(F)F)c(Cl)c1 [Example 141, (S)-4-[(S)-1-Carbamoyl-4-((S)-4-hydroxy-6-aza-spiro[2.5]oct-6-yl)-4-oxo-butyl]-2-methyl-3-oxo-piperazine-1-carboxylic acid (3-chloro-4-trifluoromethyl-phenyl)-amide] | 500
O=C(/C=C/c1ccc(Cl)c(Cl)c1)N1CCC(=O)N(CCC(=O)N2CCC(O)(c3ccncc3)CC2)CC1 [Example 78, 1-[(E)-3-(3,4-Dichloro-phenyl)-acryloyl]-4-[3-(4-hydroxy-3,4,5,6-tetrahydro-2H-[4,4′]bipyridinyl-1-yl)-3-oxo-propyl)-[1,4]diazepan-5-one] | 51.2
CC1(CO)CCCCN1C(=O)CCN1CCN(C(=O)/C=C/c2ccc(Cl)c(Cl)c2)CCC1=O (racemic) [Example 75, (rac)-1-[(E)-3-(3,4-Dichloro-phenyl)-acryloyl]-4-[3-(2-hydroxymethyl-2-methyl-piperidin-1-yl)-3-oxo-propyl]-[1,4]diazepan-5-one] | 969
C[C@H]1C(=O)N(CCCC(=O)N2CCC(C)(C)[C@H](O)C2)CCN1C(=O)Nc1ccc(Cl)c(Cl)c1 [Example 38, (S)-4-[4-((S)-3-hydroxy-4,4-dimethyl-piperidin-1-yl)-4-oxo-butyl]-2-methyl-3-oxo-piperazine-1-carboxylic acid (3,4-dichloro-phenyl)-amide] | 21.9
